Assay type in all cases: in vivo
Assay [1] deals with Kochia (Kochia scoparia). Description: Test A preemergence. Conditions: Bassia scoparia, pre-emergence, 240 h; for pest or weed control at 125 g/ha: 125 g ai/ha, preemergence, 0 to 100 scale where 0 is no effect and 100 is complete control, read-out: Kochia plant response rating; for pest or weed control at 500 g/ha: 500 g ai/ha, Preemergence, visual injury vs untreated controls after approximately 10 d, read-out: Kochia plant response rating (0 to 100 scale where 0 is no effect and 100 is complete control). In short, it runs like this:
(§1)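 Preemergence directed soil spray on seeded pots, or postemergence application to plants 2–10 cm, one- to two-leaf. Solvent mixture non-phytotoxic, with surfactant. Scored ~10 d later, visually, 0–100 vs untreated.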

Assay [2] concerns barnyardgrass (Echinochloa crus-galli). Description: Test A preemergence. Conditions: Echinochloa crus-galli, pre-emergence, 240 h; for pest or weed control at 125 g/ha: 125 g ai/ha, preemergence, 0 to 100 scale where 0 is no effect and 100 is complete control, read-out: Barnyardgrass plant response rating; for pest or weed control at 500 g/ha: 500 g ai/ha, Preemergence, visual injury vs untreated controls after approximately 10 d, read-out: Barnyardgrass plant response rating (0 to 100 scale where 0 is no effect and 100 is complete control). Summed up:
as §1

Assay [3] has as its system giant foxtail (Setaria faberii). Description: Test A preemergence. Particulars: Setaria faberi, pre-emergence, 240 h; for pest or weed control at 125 g/ha: 125 g ai/ha, preemergence, 0 to 100 scale where 0 is no effect and 100 is complete control, read-out: Foxtail, Giant plant response rating; for pest or weed control at 500 g/ha: 500 g ai/ha, Preemergence, visual injury vs untreated controls after approximately 10 d, read-out: Foxtail, Giant plant response rating (0 to 100 scale where 0 is no effect and 100 is complete control). In short, it runs like this: as §1

Assay [4] deals with pigweed (Amaranthus retroflexus). Briefly: Test A preemergence. Conditions: Amaranthus retroflexus, pre-emergence, 240 h; for pest or weed control at 125 g/ha: 125 g ai/ha, preemergence, 0 to 100 scale where 0 is no effect and 100 is complete control, read-out: Pigweed plant response rating; for pest or weed control at 500 g/ha: 500 g ai/ha, Preemergence, visual injury vs untreated controls after approximately 10 d, read-out: Pigweed plant response rating (0 to 100 scale where 0 is no effect and 100 is complete control).

In assay [5] the test system is ragweed (common ragweed, Ambrosia elatior). Description: Test A preemergence. Particulars: Ambrosia artemisiifolia, pre-emergence, 240 h; for pest or weed control at 125 g/ha: 125 g ai/ha, preemergence, 0 to 100 scale where 0 is no effect and 100 is complete control, read-out: Ragweed plant response rating; for pest or weed control at 500 g/ha: 500 g ai/ha, Preemergence, visual injury vs untreated controls after approximately 10 d, read-out: Ragweed plant response rating (0 to 100 scale where 0 is no effect and 100 is complete control). Summed up:
as §1

The test system of assay [6] is ryegrass, Italian (Italian ryegrass, Lolium multiflorum). Description: Test A preemergence. Particulars: Lolium multiflorum, pre-emergence, 240 h; for pest or weed control at 125 g/ha: 125 g ai/ha, preemergence, 0 to 100 scale where 0 is no effect and 100 is complete control, read-out: Ryegrass, Italian plant response rating; for pest or weed control at 500 g/ha: 500 g ai/ha, Preemergence, visual injury vs untreated controls after approximately 10 d, read-out: Ryegrass, Italian plant response rating (0 to 100 scale where 0 is no effect and 100 is complete control). In short, it runs like this: as §1

For assay [7], the system named is Galium (catchweed bedstraw, Galium aparine). Description: Test A postemergence. Conditions: Galium, post-emergence, 240 h, 125 g ai/ha, postemergence, visual injury rating after approximately 10 d; read-out: Galium plant response rating (0 to 100 scale, 0 no effect, 100 complete control). Summed up:
as §1

The test system of assay [8] is Kochia (Kochia scoparia). Briefly: Test A postemergence. Particulars: Bassia scoparia, post-emergence, 240 h, 125 g ai/ha, postemergence, visual injury rating after approximately 10 d; read-out: Kochia plant response rating (0 to 100 scale, 0 no effect, 100 complete control). Summed up:
as §1

Assay [9] concerns barnyardgrass (Echinochloa crus-galli). Description: Test A postemergence. Particulars: Echinochloa crus-galli, post-emergence, 240 h, 125 g ai/ha, postemergence, visual injury rating after approximately 10 d; read-out: Barnyardgrass plant response rating (0 to 100 scale, 0 no effect, 100 complete control). In short, it runs like this:
as §1

The subject of assay [10] is blackgrass (Alopecurus myosuroides). Description: Test A postemergence. Conditions: Alopecurus myosuroides, post-emergence, 240 h, 125 g ai/ha, postemergence, visual injury rating after approximately 10 d; read-out: Blackgrass plant response rating (0 to 100 scale, 0 no effect, 100 complete control). In short, it runs like this:
as §1

Another assay concerns corn (Zea mays). Briefly: Test A postemergence. Particulars: Zea mays, post-emergence, 240 h, 125 g ai/ha, postemergence, visual injury rating after approximately 10 d; read-out: Corn plant response rating (0 to 100 scale, 0 no effect, 100 complete control). Summed up:
as §1

In assay [11] the test system is giant foxtail (Setaria faberii). Description: Test A postemergence. Particulars: Setaria faberi, post-emergence, 240 h, 125 g ai/ha, postemergence, visual injury rating after approximately 10 d; read-out: Foxtail, Giant plant response rating (0 to 100 scale, 0 no effect, 100 complete control). In short, it runs like this:
as §1

For assay [12], the system named is ragweed (common ragweed, Ambrosia elatior). Description: Test A postemergence. Conditions: Ambrosia artemisiifolia, post-emergence, 240 h, 125 g ai/ha, postemergence, visual injury rating after approximately 10 d; read-out: Ragweed plant response rating (0 to 100 scale, 0 no effect, 100 complete control). In short, it runs like this:
as §1

Assay [13] relates to ryegrass, Italian (Italian ryegrass, Lolium multiflorum). Description: Test A postemergence. Particulars: Lolium multiflorum, post-emergence, 240 h, 125 g ai/ha, postemergence, visual injury rating after approximately 10 d; read-out: Ryegrass, Italian plant response rating (0 to 100 scale, 0 no effect, 100 complete control). In short, it runs like this:
as §1

Assay [14] relates to wheat (Triticum aestivum). Briefly: Test A postemergence. Particulars: Triticum aestivum, post-emergence, 240 h, 125 g ai/ha, postemergence, visual injury rating after approximately 10 d; read-out: Wheat plant response rating (0 to 100 scale, 0 no effect, 100 complete control). Summed up: as §1

Regarding `Cc1c(F)ccc([C@H]2CN(C)C(=O)[C@@H]2C(=O)Nc2ccc(F)cc2F)c1F` [Compound 835], the pest or weed control at 125 g/ha with Kochia (Kochia scoparia) [1] was determined as 80%; in [2], 90%; in assay [3], 90%; in assay [4] it was 20%; in assay [5], 0%; in assay [6], 30%. Also, the pest or weed control at 125 g/ha in [7] is 30%; with Kochia (Kochia scoparia) [8], 0%; in assay [9], 90%; in [10], 40%; in assay [11], 90%; in assay [12], 0%. For the same compound, the pest or weed control at 125 g/ha in assay [13] stood at 50%. Further, the pest or weed control at 500 g/ha in the assay on Kochia (Kochia scoparia) [1] was 90%; in assay [2], 100%; in assay [3] it was 100%; in [4] it was 40%; in [5] it was 0%; in assay [6] it was 70%. The figures for the plant injury at 125 g/ha (in the assay on corn (Zea mays); in assay [14]) were 30% and 0%, respectively.
As for `Cc1cc(C)cc([C@H]2CNC(=O)[C@@H]2C(=O)Nc2ccccc2F)c1` [Compound 888], the pest or weed control at 125 g/ha was 60% with Kochia (Kochia scoparia) [1]; 90% in assay [2]; 80% in [3]; 0% in assay [4]; 0% in assay [5]; 0% in assay [6]. Also, the pest or weed control at 125 g/ha was 0% in assay [7]; 0% with Kochia (Kochia scoparia) [8]; 90% in assay [9]; 20% in assay [10]; 30% in [11]; 0% in assay [12]. Further, the pest or weed control at 125 g/ha in [13] came to 0%. The pest or weed control at 500 g/ha was 80% in the assay on Kochia (Kochia scoparia) [1]; 90% in assay [2]; 90% in assay [3]; 0% in assay [4]; 0% in assay [5]; 60% in [6]. For the same compound, the plant injury at 125 g/ha (with corn (Zea mays); in assay [14]) was 0% each time.
Regarding `COc1c(F)ccc([C@H]2CN(C)C(=O)[C@@H]2C(=O)Nc2ccc(F)c(F)c2F)c1Cl` [Compound 895], the pest or weed control at 125 g/ha in the assay with Kochia (Kochia scoparia) [1] was 90%; in assay [2], 90%; in assay [3] it was 90%; in assay [4], 50%; in [5] it was 0%; in [6] it was 90%. Further, the pest or weed control at 125 g/ha stood at 70% in assay [7]; 70% with Kochia (Kochia scoparia) [8]; 90% in assay [9]; 60% in assay [10]; 90% in assay [11]; 0% in assay [12]. The pest or weed control at 125 g/ha in assay [13] turned out to be 60%. Also, the pest or weed control at 500 g/ha in the assay on Kochia (Kochia scoparia) [1] amounted to 90%; in assay [2], 100%; in assay [3], 90%; in assay [4], 50%; in [5] it was 0%; in assay [6] it was 70%. The plant injury at 125 g/ha turned out to be 80% in the assay on corn (Zea mays) and 40% in assay [14].

The values are drawn from US12077503B2, “Substituted cyclic amides and their use as herbicides” (FMC CORPORATION, priority 2015, dated 2024).
